Converted amounts (≈) assume the structure as drawn. Where two headings read alike, the source gives them in different places.
Assays:
Format in all cases: cell-based
[1] = test system: Gram +; assay: MIC test, average over the 5 gram-positive test germs; conditions: 24 h
Protocol: (§1) As to the antibacterial activity, there was determined the Least (Minimum) Inhibiting Concentration (MIC), by working according to the following operative conditions.
(§2) There were used suspensions of test germs (5 gram-positive and 15 gram-negative) having a known titre, kept freezed at -80°C and diluted, at the time of use, in peptonized water up to a concentration of 1-2.10⁷ cfu/ml.
(§3) A few mg of the products, according to the invention were weighed sufficient for preparing parent solutions in DMSO + NaOH (1N) containing 2560 µg/ml (64µg/ml/dish). From the thus prepared parent solutions there were prepared 12 serial dilutions (1:2) down to the concentration of 1.25 µg/ml.
(§4) 0.5 ml of the different dilutions of each product were distributed on dishes containing 19.5 ml of agarized medium (TSA), maintained in a fluid state at the temperature of 50°C. After slight stirring, the dishes were made to solidify and dry under hood (laminar flow).
(§5) The MIC tests (Least or "Minimum" Inhibiting Concentration) were performed by using a Steers multiwell inoculator having 36 wells, each containing 200 µl of bacterial suspension.
(§6) After inoculation, the dishes were placed into a thermostat and checked after 24 h of incubation at 35°C.
(§7) The MIC is defined as the lowermost product concentration (µg/ml) inhibiting the visible growth of the microorganisms.

[2] = test system: Acinebacter calcoloaceticus OSMPV 1130; assay: MIC test, agar dilution with Steers multiwell inoculator; conditions: TSA dishes, 24 h at 35°C, read-out: Minimum Inhibiting Concentration
Protocol: as §1, §2, §3, §4, §5, §6, §7

[3] = test system: Enterobacter cloacae OMNF 1153; assay: as above; conditions: OMNF1153, TSA dishes, 24 h at 35°C, read-out: Minimum Inhibiting Concentration
Protocol: as §1, §2, §3, §4, §5, §6, §7

[4] = test system: Enterobacter cloacae OMNF 1174; assay: as above; conditions: OMNF1174, TSA dishes, 24 h at 35°C, read-out: Minimum Inhibiting Concentration
Protocol: as §1, §2, §3, §4, §5, §6, §7

[5] = test system: Escherichia coli 120; assay: as above; conditions: TSA dishes, 24 h at 35°C, read-out: Minimum Inhibiting Concentration
Protocol: as §1, §2, §3, §4, §5, §6, §7

[6] = test system: Escherichia coli ATCC 8739; assay: as above; conditions: ATCC8739, TSA dishes, 24 h at 35°C, read-out: Minimum Inhibiting Concentration
Protocol: as §1, §2, §3, §4, §5, §6, §7

[7] = test system: Escherichia coli CNUR 1; assay: as above; conditions: CNUR1, TSA dishes, 24 h at 35°C, read-out: Minimum Inhibiting Concentration
Protocol: as §1, §2, §3, §4, §5, §6, §7

[8] = test system: Escherichia coli CNUR 8; assay: as above; conditions: CNUR8, TSA dishes, 24 h at 35°C, read-out: Minimum Inhibiting Concentration
Protocol: as §1, §2, §3, §4, §5, §6, §7

[9] = test system: Escherichia coli ISF 432; assay: as above; conditions: ISF432, TSA dishes, 24 h at 35°C, read-out: Minimum Inhibiting Concentration
Protocol: as §1, §2, §3, §4, §5, §6, §7

[10] = test system: Klebsiella pneumoniae ATCC 10031; assay: as above; conditions: ATCC10031, TSA dishes, 24 h at 35°C, read-out: Minimum Inhibiting Concentration
Protocol: as §1, §2, §3, §4, §5, §6, §7

[11] = test system: Proteus vulgaris CNUR 6; assay: as above; conditions: CNUR6, TSA dishes, 24 h at 35°C, read-out: Minimum Inhibiting Concentration
Protocol: as §1, §2, §3, §4, §5, §6, §7

[12] = test system: Providencia stuardii CNUR 5; assay: as above; conditions: CNUR5, TSA dishes, 24 h at 35°C, read-out: Minimum Inhibiting Concentration
Protocol: as §1, §2, §3, §4, §5, §6, §7

[13] = test system: Pseudomonas aeruginosa ATCC 9027; assay: as above; conditions: ATCC9027, TSA dishes, 24 h at 35°C, read-out: Minimum Inhibiting Concentration
Protocol: as §1, §2, §3, §4, §5, §6, §7

[14] = test system: Pseudomonas aeruginosa CNUR 2; assay: as above; conditions: CNUR2, TSA dishes, 24 h at 35°C, read-out: Minimum Inhibiting Concentration
Protocol: as §1, §2, §3, §4, §5, §6, §7

[15] = test system: Pseudomonas aeruginosa CNUR 4; assay: as above; conditions: CNUR4, TSA dishes, 24 h at 35°C, read-out: Minimum Inhibiting Concentration
Protocol: as §1, §2, §3, §4, §5, §6, §7

[16] = test system: Shighella enteritidis; assay: as above; conditions: TSA dishes, 24 h at 35°C, read-out: Minimum Inhibiting Concentration
Protocol: as §1, §2, §3, §4, §5, §6, §7

[17] = test system: Staphylococcus aureus ATCC 6538; assay: as above; conditions: ATCC6538, TSA dishes, 24 h at 35°C, read-out: Minimum Inhibiting Concentration
Protocol: as §1, §2, §3, §4, §5, §6, §7

[18] = test system: Staphylococcus aureus MPR 5; assay: as above; conditions: MPR5, TSA dishes, 24 h at 35°C, read-out: Minimum Inhibiting Concentration
Protocol: as §1, §2, §3, §4, §5, §6, §7

[19] = test system: Staphylococcus epidermidis CPHL A2; assay: as above; conditions: CPHLA2, TSA dishes, 24 h at 35°C, read-out: Minimum Inhibiting Concentration
Protocol: as §1, §2, §3, §4, §5, §6, §7

[20] = test system: Staphylococcus epidermidis HCF Berset C.; assay: as above; conditions: TSA dishes, 24 h at 35°C, read-out: Minimum Inhibiting Concentration
Protocol: as §1, §2, §3, §4, §5, §6, §7

[21] = test system: Streptococcus facealis LEP Br.; assay: as above; conditions: TSA dishes, 24 h at 35°C, read-out: Minimum Inhibiting Concentration
Protocol: as §1, §2, §3, §4, §5, §6, §7

[22] = test system: Gram -; assay: MIC test, average over the 15 gram-negative test germs; conditions: 24 h
Protocol: as §1, §2, §3, §4, §5, §6, §7

[23] = geometrical average of the MIC over the 5 Gram + strains, read-out: Geometrical Average
[24] = geometrical average of the MIC over the 15 Gram - strains, read-out: Geometrical Average
[25] = mean log of the MIC over the 15 Gram - strains, read-out: Log (converted)

Row | Compound | MIC [1, 23] [µg/mL] | MIC ([1]; read-out: Log (converted)) [µg/mL] | MIC [2] [µg/mL] | MIC [3] [µg/mL] | MIC [4] [µg/mL] | MIC [5] [µg/mL] | MIC [6] [µg/mL] | MIC [7] [µg/mL] | MIC [8] [µg/mL] | MIC [9] [µg/mL] | MIC [10] [µg/mL] | MIC [11] [µg/mL] | MIC [12] [µg/mL] | MIC [13] [µg/mL] | MIC [14] [µg/mL] | MIC [15] [µg/mL] | MIC [16] [µg/mL] | MIC [17] [µg/mL] | MIC [18] [µg/mL] | MIC [19] [µg/mL] | other results
1 | CC(C)(C)n1cc(C(=O)O)c(=O)c2cc(N)c(N3CCSCC3)cc21 [Compound 46, 6-amino-1-terbutyl-7-(1-thiomorpholinyl)-1,4-dihydro-4-oxo-quinoline carboxylic acid] | 0.66 | 0.659 (≈ 1.82 µM) | 0.5 (≈ 1.38 µM) | 2 (≈ 5.53 µM) | 2 (≈ 5.53 µM) | 0.25 (≈ 0.692 µM) | 0.06 (≈ 0.166 µM) | 1 (≈ 2.77 µM) | 0.25 (≈ 0.692 µM) | 0.03 (≈ 0.083 µM) | 0.03 (≈ 0.083 µM) | 128 (≈ 354 µM) | 4 (≈ 11.1 µM) | 4 (≈ 11.1 µM) | 16 (≈ 44.3 µM) | 128 (≈ 354 µM) | 2 (≈ 5.53 µM) | 0.25 (≈ 0.692 µM) | 0.25 (≈ 0.692 µM) | 0.5 (≈ 1.38 µM) | MIC [20]: 0.5 µg/mL (≈ 1.38 µM); MIC [21]: 8 µg/mL (≈ 22.1 µM); MIC [22, 24]: 1.31 µg/mL (≈ 3.62 µM); MIC [22, 25]: 1.31 µg/mL (≈ 3.62 µM)
2 | CC(C)(C)n1cc(C(=O)O)c(=O)c2cc(N)c(N3CCc4ccccc4C3)cc21 [Compound 47, 6-amino-1-terbutyl-7-[2-(1,2,3,4-tetrahydroisoquinolinyl)]-1,4-dihydro-4-oxo-quinoline carboxylic acid] | 0.871 | 0.871 (≈ 2.22 µM) | 2 (≈ 5.11 µM) | 16 (≈ 40.9 µM) | 8 (≈ 20.4 µM) | 2 (≈ 5.11 µM) | 0.12 (≈ 0.307 µM) | 8 (≈ 20.4 µM) | 2 (≈ 5.11 µM) | 0.12 (≈ 0.307 µM) | 0.12 (≈ 0.307 µM) | 128 (≈ 327 µM) | 4 (≈ 10.2 µM) | 32 (≈ 81.7 µM) | 64 (≈ 163 µM) | 128 (≈ 327 µM) | 8 (≈ 20.4 µM) | 0.25 (≈ 0.639 µM) | 0.5 (≈ 1.28 µM) | 0.5 (≈ 1.28 µM) | MIC [20]: 1 µg/mL (≈ 2.55 µM); MIC [21]: 8 µg/mL (≈ 20.4 µM); MIC [22, 24]: 4.77 µg/mL (≈ 12.2 µM); MIC [22, 25]: 4.78 µg/mL (≈ 12.2 µM)
3 | CC(C)(C)n1cc(C(=O)O)c(=O)c2cc(N)c(N3CCN(c4ccccn4)CC3)cc21 [Compound 48, 6-amino-1-terbutyl-7-[4-(2-pyridyl)-1-piperazinyl]-1,4-dihydro-4-oxo-quinoline carboxylic acid] | 2 | 2 (≈ 4.74 µM) | 1 (≈ 2.37 µM) | 128 (≈ 304 µM) | 64 (≈ 152 µM) | 16 (≈ 38 µM) | 0.5 (≈ 1.19 µM) | 64 (≈ 152 µM) | 16 (≈ 38 µM) | 0.5 (≈ 1.19 µM) | 0.25 (≈ 0.593 µM) | 128 (≈ 304 µM) | 128 (≈ 304 µM) | 128 (≈ 304 µM) | 128 (≈ 304 µM) | 128 (≈ 304 µM) | 64 (≈ 152 µM) | 1 (≈ 2.37 µM) | 1 (≈ 2.37 µM) | 1 (≈ 2.37 µM) | MIC [20]: 2 µg/mL (≈ 4.74 µM); MIC [21]: 16 µg/mL (≈ 38 µM); MIC [22, 24]: 19.2 µg/mL (≈ 45.7 µM); MIC [22, 25]: 19.2 µg/mL (≈ 45.6 µM)
4 | CN1CCN(c2cc3c(cc2N)c(=O)c(C(=O)O)cn3-c2ccc(F)cc2)CC1 [Compound 50] | 10.6 | 10.5 (≈ 26.6 µM) | 16 (≈ 40.4 µM) | 4 (≈ 10.1 µM) | 4 (≈ 10.1 µM) | 0.5 (≈ 1.26 µM) | 0.25 (≈ 0.631 µM) | 4 (≈ 10.1 µM) | 0.5 (≈ 1.26 µM) | 0.25 (≈ 0.631 µM) | 0.12 (≈ 0.303 µM) | 128 (≈ 323 µM) | 4 (≈ 10.1 µM) | 8 (≈ 20.2 µM) | 32 (≈ 80.7 µM) | 128 (≈ 323 µM) | 4 (≈ 10.1 µM) | 8 (≈ 20.2 µM) | 4 (≈ 10.1 µM) | 8 (≈ 20.2 µM) | MIC [20]: 8 µg/mL (≈ 20.2 µM); MIC [21]: 64 µg/mL (≈ 161 µM); MIC [22, 24]: 3.47 µg/mL (≈ 8.76 µM); MIC [22, 25]: 3.48 µg/mL (≈ 8.77 µM)
